Where two headings read alike, the source gives them in different places.
Assays:
basophils = assay: Basophil activation in human whole blood (Flow2 CAST kit, CD63 positive cells); format: cell-based
Description: Effect on basophil activation was measured in human whole blood using the Flow2 CAST® kit (Buhlmann Laboratories AG, Baselstrasse, Switzerland) following the protocol provided by the manufacturer with minor modifications. Human whole blood was collected into K2-EDTA venipuncture tubes. Whole blood samples were treated with either DMSO (0.3% final) or a serial dilution of compounds in DMSO for 60 minutes at 37° C. Basophils were then activated either with anti-FcεRI mAb or with fMLP. To activate basophils using the anti-FcεRI mAb; 50 μl of whole blood was mixed with 110 μl of stimulation buffer (B-BAT-STB) and 20 μl of anti-FcεRI (B-BAT-STCON). To activate basophils with fMLP; 50 μl of whole blood was mixed with 80 μl of stimulation buffer (B-BAT-STB) and 50 μl of fMLP (B-CCR-FMLP). Stimulation buffer was used as a negative control. 20 μl of the staining reagent (combination of anti-human CD63-FITC and anti-human CCR3-PE mAbs) was then added to each tube. […] Subsequently, erythrocytes were lysed and fixed by the addition of 2 ml of lysing solution (B-BAT-LYR) for 10 min at room temperature. Cells were pelleted by centrifugation at 1200 rpm for 10 min at room temperature in a swing-out rotor. Supernatant was aspirated and cell pellet resuspended in 400 μl of wash buffer. Flow cytometric analysis of the basophil activation was performed on a FC500MPL flow cytometer (Beckman Coulter Inc., Fullerton, Calif.). CCR3-staining and side scatter were applied to gate at least 200 basophils that expressed a high density of CCR3. The percent CD63 positive cells within the gated basophil population were determined in different treatment groups and normalized to the vehicle control (0.3% DMSO) with anti-FcεRI mAb of fMLP stimulus as 100%. Final compound concentration was adjusted to correct for dilution effect of added reagents. The EC50 values were calculated from the analysis of the dose-response curves to a four-parameter equation. All EC50 values represent geometric mean values and are reported in units of nM.

[1] = Hepatocyte stability, 0.01% final DMSO, 1 μM substrate (t1/2^b); format: in vitro ADME; settings: human, hepatocytes, TA with 0.01% final DMSO
Description: Alternatively, assay reagents and/or conditions can be modified in determining the inhibitory activities to PI3K isomers. In additional studies, similar assay using TA and 0.01% final DMSO concentration were incubated with 1 million hepatocytes/mL at 1 μM substrate in duplicate. The incubation was carried out at 37° C. with 5% CO2 and saturating humidity.

PI3Kδ = molecular target: T1, PI3Kδ (Homo sapiens, UniProt O00329); assay: Enzymatic activity of PI3K isoforms, TR-FRET assay (PIP3 formation); format: biochemical; settings: read-out: IC50
T1 construct: made in house
T1 sequence (O00329 whole entry, canonical isoform): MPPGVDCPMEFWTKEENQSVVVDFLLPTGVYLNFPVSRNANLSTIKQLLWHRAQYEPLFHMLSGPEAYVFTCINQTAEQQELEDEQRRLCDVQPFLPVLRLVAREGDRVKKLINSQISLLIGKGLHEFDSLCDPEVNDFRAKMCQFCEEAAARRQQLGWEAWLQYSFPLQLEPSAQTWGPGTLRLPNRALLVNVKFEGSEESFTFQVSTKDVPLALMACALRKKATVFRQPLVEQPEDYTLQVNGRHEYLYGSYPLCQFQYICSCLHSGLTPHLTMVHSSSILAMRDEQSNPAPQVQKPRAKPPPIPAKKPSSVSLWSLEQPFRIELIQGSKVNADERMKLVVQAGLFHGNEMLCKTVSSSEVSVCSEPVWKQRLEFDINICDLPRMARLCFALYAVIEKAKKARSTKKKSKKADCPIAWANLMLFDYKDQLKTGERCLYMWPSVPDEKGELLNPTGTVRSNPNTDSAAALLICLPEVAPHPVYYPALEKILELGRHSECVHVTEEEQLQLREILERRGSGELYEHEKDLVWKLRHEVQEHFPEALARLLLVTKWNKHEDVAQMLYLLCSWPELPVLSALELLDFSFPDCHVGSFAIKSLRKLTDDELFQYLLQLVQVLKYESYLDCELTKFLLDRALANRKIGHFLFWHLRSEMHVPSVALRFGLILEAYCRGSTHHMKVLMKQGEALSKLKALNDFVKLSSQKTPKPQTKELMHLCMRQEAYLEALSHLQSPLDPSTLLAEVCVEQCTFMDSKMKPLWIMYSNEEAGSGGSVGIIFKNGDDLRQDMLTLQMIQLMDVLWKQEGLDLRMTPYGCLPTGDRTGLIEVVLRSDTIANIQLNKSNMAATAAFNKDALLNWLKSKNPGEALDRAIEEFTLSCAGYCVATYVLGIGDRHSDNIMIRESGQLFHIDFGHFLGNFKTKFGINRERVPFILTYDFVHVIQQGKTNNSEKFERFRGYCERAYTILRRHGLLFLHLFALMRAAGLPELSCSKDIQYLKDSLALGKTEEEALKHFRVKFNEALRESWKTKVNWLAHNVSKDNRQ
T1 sequence (P27986 whole entry partner, canonical isoform): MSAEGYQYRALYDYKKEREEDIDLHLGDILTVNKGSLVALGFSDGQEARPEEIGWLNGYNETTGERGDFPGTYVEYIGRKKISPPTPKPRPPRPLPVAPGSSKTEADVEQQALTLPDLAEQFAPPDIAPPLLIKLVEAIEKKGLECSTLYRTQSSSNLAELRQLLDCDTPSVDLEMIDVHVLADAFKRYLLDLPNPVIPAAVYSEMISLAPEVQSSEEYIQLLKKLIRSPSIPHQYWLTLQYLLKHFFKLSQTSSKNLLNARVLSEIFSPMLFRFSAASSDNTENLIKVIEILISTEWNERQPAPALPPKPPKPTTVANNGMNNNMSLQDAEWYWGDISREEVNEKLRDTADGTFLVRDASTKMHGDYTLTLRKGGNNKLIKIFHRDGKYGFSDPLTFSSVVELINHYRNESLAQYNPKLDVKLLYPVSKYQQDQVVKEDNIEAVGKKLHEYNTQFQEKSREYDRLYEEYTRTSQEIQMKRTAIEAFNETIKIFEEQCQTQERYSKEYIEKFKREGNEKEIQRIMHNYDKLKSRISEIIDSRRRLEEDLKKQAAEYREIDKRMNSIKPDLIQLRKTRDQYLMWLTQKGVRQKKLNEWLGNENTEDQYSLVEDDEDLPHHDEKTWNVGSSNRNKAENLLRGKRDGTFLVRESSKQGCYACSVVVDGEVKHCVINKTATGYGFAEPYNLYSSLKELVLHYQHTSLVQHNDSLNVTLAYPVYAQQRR
From the text: Enzymatic Activity of PI3K Isoforms
The TR-FRET assay was used to monitor formation of the product 3,4,5-inositol triphosphate molecule (PIP3) as it competed with fluorescently labeled PIP3 for binding to the GRP-1 pleckstrin homology domain protein. An increase in […] product results in a decrease in TR-FRET signal as the labeled fluorophore is displaced from the GRP-1 protein binding site.
Class I PI3K isoforms were expressed and purified as heterodimeric recombinant proteins. All assay reagents and buffers for the TR-FRET assay were purchased from Millipore. […] After an assay reaction time of 30 minutes at 25° C., reactions were terminated with a final concentration of 10 mM EDTA, 10 nM labeled-PIP3, and 35 nM Europium labeled GRP-1 detector protein before reading TR-FRET on an Envision plate reader (Ex: 340 nm; Em: 615/665 nm; 100 μs delay and 500 μs read window).
Data are normalized based on a positive (1 uM wortmanin) and negative (DMSO) controls. The α, β, δ, and γ IC50 values were calculated from the fit of the dose-response curves to a four-parameter equation. IC50 are reported in units of nM.
IC50 values were obtained for all PI3K isoforms (α, β, δ, and γ), and Table 2 summarizes the IC50 data collected for PI3Kδ in this Example B1.

[2] = Homo sapiens, basophils activated with anti-FcεRI mAb or fMLP, geometric mean
[3] = 1 μM substrate, samples at 0, 1, 3, 6 hours, read-out: human hepatocyte t½^b
[4] = PI3Kδ, TR-FRET, 2×Km ATP, 10 μM PIP2
[5] = basophils activated with anti-FcεRI mAb or fMLP, geometric mean

Row | Compound | EC50 (basophils; [2]) [nM] | IC50 (PI3Kδ; [4]) [nM] | further results
1 | CC(Nc1nc(N)nc(N)c1C#N)c1nc2ccc(F)c(F)c2c(=O)n1-c1cc(F)cc(F)c1 (single isomer, unassigned) [Compound 29a] | 1 to 10 | 10 to 50 | half-life at 1 μM [1, 3]: > 600 min
2 | C[C@H](Nc1ncnc(N)c1C#N)c1nc2cccc(F)c2c(=O)n1-c1cccc(F)c1 [Compound V, reference compound] | – | – | EC50 (basophils; Homo sapiens, basophil activation): > 4 nM; half-life at 1 μM ([1]; human hepatocytes, read-out: t1/2^b): < 60 min
3 | COc1cccc2c(=O)n(-c3ccccc3)c(C(C)Nc3nc(N)nc(N)c3C#N)nc12 (single isomer, unassigned) [Compound 156a] | 10 to 50 | > 50 | –
4 | CC(Nc1nc(N)nc(N)c1C#N)c1nc2c(F)ccc(C#N)c2c(=O)n1-c1cc(F)cc(F)c1 (single isomer, unassigned) [Compound 125a] | 10 to 50 | 10 to 50 | –
5 | CC(Nc1nc(N)nc(N)c1C#N)c1cc2cccc(Cl)c2c(=O)n1-c1ccccc1 (single isomer, unassigned) [Compound 196a] | – | – | EC50 (basophils; [5]): < 1 nM; IC50 (PI3Kδ): < 1 nM
6 | CC(Nc1nc(N)nc(N)c1C#N)c1nc2cccc(S(C)(=O)=O)c2c(=O)n1-c1ccccc1F (single isomer, unassigned) [Compound 142a-1] | 10 to 50 | 1 to 10 | –
7 | Cc1c(F)ccc(-n2c(C(C)Nc3nc(N)nc(N)c3C#N)nc3cccc(Cl)c3c2=O)c1C (single isomer, unassigned) [Compound 203a-2] | – | > 50 | EC50 (basophils; [5]): 10 to 50 nM
8 | COc1cc(-n2c(C(C)Nc3nc(N)nc(N)c3C#N)nc3cccc(Cl)c3c2=O)ccc1C (single isomer, unassigned) [Compound 184a] | > 50 | 10 to 50 | –
9 | CC(Nc1nc(N)nc(N)c1C#N)c1nc2ccc(F)c(Cl)c2c(=O)n1-c1cc(F)cc(C(F)F)c1 (single isomer, unassigned) [Compound 141a] | 10 to 50 | 10 to 50 | –
10 | CC(C)CC(Nc1nc(N)nc(N)c1C#N)c1nc2cccc(Cl)c2c(=O)n1-c1cccc(C#N)c1 (single isomer, unassigned) [Compound 167a] | > 50 | 10 to 50 | –
11 | Cc1ccc(C(F)F)cc1-n1c(C(C)Nc2nc(N)nc(N)c2C#N)nc2cccc(Cl)c2c1=O (single isomer, unassigned) [Compound 188a-1] | – | 1 to 10 | EC50 (basophils; [5]): 10 to 50 nM
12 | CC(Nc1nc(N)nc(N)c1Cl)c1cc2cccc(Cl)c2c(=O)n1-c1ccccc1 (single isomer, unassigned) [Compound 195a] | – | – | EC50 (basophils; [5]): 1 to 10 nM; IC50 (PI3Kδ): < 1 nM
13 | CC(Nc1nc(N)nc(N)c1C#N)c1nc2cccc(S(C)(=O)=O)c2c(=O)n1-c1cccc(F)c1 (single isomer, unassigned) [Compound 117a] | 10 to 50 | 1 to 10 | –
14 | Cc1ccc(C)c(-n2c(C(C)Nc3nc(N)nc(N)c3C#N)nc3cccc(Cl)c3c2=O)c1 (single isomer, unassigned) [Compound 191a-1] | – | 1 to 10 | EC50 (basophils; [5]): 10 to 50 nM
15 | CC(Nc1nc(N)nc(N)c1C#N)c1nc2cccc(C#N)c2c(=O)n1-c1cccc(F)c1 (single isomer, unassigned) [Compound 131a] | 1 to 10 | 1 to 10 | –
16 | Cc1c(F)cc(F)cc1-n1c(C(C)Nc2nc(N)nc(N)c2C#N)nc2cccc(Cl)c2c1=O (single isomer, unassigned) [Compound 200a-1] | – | 10 to 50 | EC50 (basophils; [5]): 10 to 50 nM
17 | CC(Nc1nc(N)nc(N)c1C#N)c1nc2cccc(S(C)(=O)=O)c2c(=O)n1-c1c(F)cccc1F (single isomer, unassigned) [Compound 146a] | > 50 | 1 to 10 | –

Now from value to compound, other results behind:

Row | EC50 (basophils; [2]) [nM] | IC50 (PI3Kδ; [4]) [nM] | Compound | further results
18 | 1 to 10 | 1 to 10 | CC(Nc1nc(N)nc(N)c1C#N)c1nc2cccc(Cl)c2c(=O)n1-c1cccc(CC(F)F)c1 (single isomer, unassigned) [Compound 120a] | half-life at 1 μM [1, 3]: 60 to 180 min
19 | 1 to 10 | 1 to 10 | C[C@H](Nc1nc(N)nc(N)c1C#N)c1nc2cccc(F)c2c(=O)n1-c1cccc(C(F)F)c1 [Compound 121a, (S)-2,4-diamino-6-(1-(3-(3-(difluoromethyl)phenyl)-5-fluoro-4-oxo-3,4-dihydroquinazolin-2-yl)ethylamino)pyrimidine-5-carbonitrile] | half-life at 1 μM [1, 3]: 180 to 360 min
20 | 1 to 10 | < 1 | COc1cccc(-n2c(C(C)Nc3nc(N)nc(N)c3C#N)nc3cccc(Cl)c3c2=O)c1C (single isomer, unassigned) [Compound 109a-2] | half-life at 1 μM [1, 3]: 60 to 180 min
21 | 1 to 10 | 1 to 10 | COCC(Nc1nc(N)nc(N)c1C#N)c1nc2cccc(Cl)c2c(=O)n1-c1cc(F)cc(F)c1 (single isomer, unassigned) [Compound 135a] | half-life at 1 μM [1, 3]: 60 to 180 min
22 | 1 to 10 | 1 to 10 | CC(Nc1nc(N)nc(N)c1C#N)c1nc2cccc(Cl)c2c(=O)n1-c1c(F)cccc1F (single isomer, unassigned) [Compound 145a] | half-life at 1 μM [1, 3]: 360 to 600 min
23 | 1 to 10 | 1 to 10 | CC(Nc1nc(N)nc(N)c1C#N)c1nc2cccc(Cl)c2c(=O)n1-c1cccc(C(F)(F)F)c1 (single isomer, unassigned) [Compound 47a] | half-life at 1 μM [1, 3]: 180 to 360 min
24 | 1 to 10 | 1 to 10 | CC(Nc1nc(N)nc(N)c1C#N)c1nc2c(Cl)cc(F)cc2c(=O)n1-c1cc(F)cc(F)c1 (single isomer, unassigned) [Compound 89a] | half-life at 1 μM [1, 3]: 360 to 600 min
25 | 10 to 50 | 1 to 10 | Cc1cccc2c(=O)n(-c3ccccc3)c(C(C)Nc3nc(N)nc(N)c3C#N)nc12 (single isomer, unassigned) [Compound 3a] | –
26 | 1 to 10 | < 1 | CC(Nc1nc(N)nc(N)c1C#N)c1nc2cccc(O)c2c(=O)n1-c1ccccc1 (single isomer, unassigned) [Compound 2a] | –
27 | < 1 | < 1 | Cc1cccc2nc(C(C)Nc3nc(N)nc(N)c3C#N)n(-c3ccccc3)c(=O)c12 (single isomer, unassigned) [Compound 23a] | –
28 | 1 to 10 | 1 to 10 | CC(Nc1nc(N)nc(N)c1C#N)c1nc2ccc(F)cc2c(=O)n1-c1ccccc1 (single isomer, unassigned) [Compound 9a] | –
29 | – | 1 to 10 | Cc1ccc(C)c(-n2c(C(C)Nc3nc(N)nc(N)c3C#N)nc3cccc(Cl)c3c2=O)c1 (single isomer, unassigned) [Compound 191a-2] | EC50 (basophils; [5]): 1 to 10 nM
30 | 10 to 50 | 1 to 10 | CC(Nc1nc(N)nc(N)c1C#N)c1nc2cccc(S(C)(=O)=O)c2c(=O)n1-c1cc(F)cc(F)c1 (single isomer, unassigned) [Compound 96a] | –
31 | 10 to 50 | 1 to 10 | CC(Nc1nc(N)nc(N)c1Cl)c1nc2cccc(S(C)(=O)=O)c2c(=O)n1-c1cccc(F)c1 (single isomer, unassigned) [Compound 153a] | –
32 | 10 to 50 | 1 to 10 | CC(Nc1nc(N)nc(N)c1C#N)c1nc2cccc(Cl)c2c(=O)n1-c1cc(C(F)F)cc(C(F)F)c1 (single isomer, unassigned) [Compound 119a] | –
33 | – | < 1 | Cc1c(F)cccc1-n1c(C(C)Nc2nc(N)nc(N)c2C#N)nc2cccc(Cl)c2c1=O (single isomer, unassigned) [Compound 199a-1] | EC50 (basophils; [5]): < 1 nM

From patent US9029384B2, “Phosphatidylinositol 3-kinase inhibitors” (Gilead Calistoga LLC, priority 2012, dated 2015)
